Earlier results, collected in patent publication US9327003B2, “Use of foti to enhance stem cell mobilization and proliferation” (Stemtech International, Inc., priority 2011, dated 2016).

B1: G-CSF: granulocyte colony-stimulating factor or recombinant forms thereof (protein, UniProt P09919 31-207, looked up)
Granulocyte …: TPLGPASSLPQSFLLKCLEQVRKIQGDGAALQEKLVSECATYKLCHPEELVLLGHSLGIPWAPLSSCPSQALQLAGCLSQLHSGLFLYQGLLQALEGISPELGPTLDTLQLDVADFATTIWQQMEELGMAPALQPTQGAMPAFASAFQRRAGGVLVASHLQSFLEVSYRVLRHLAQP

What was measured:
[1] = including hemorrhaging, rupturing of the spleen, bloody sputum, bone disorders
[2] = test system: circulating HSC; conditions: injection / administration

Row | Molecule | side effects [1] | time course of elevating circulating HSC numbers [2] | other results
1 | OC[C@H]1O[C@@H](Oc2c(O)cc(O)cc2C=Cc2ccc(O)cc2)[C@H](O)[C@@H](O)[C@@H]1O [2,3,5,4′-tetrahydroxystilbene-2-O-β-d-glycoside] |  |  | stability in aqueous solutions: readily degrade in aqueous solutions in a temperature and pH dependent manner
2 | c1cc(CN2CCCNCCNCCCNCC2)ccc1CN1CCCNCCNCCCNCC1 [AMD3100, reference compound] | significant side effects |  | 
3 | G-CSF: granulocyte colony-stimulating factor or recombinant forms thereof |  | requires days to achieve peak circulating HSC numbers | 
4 | IL-8: interleukin-8 |  | acts only within minutes and has a short-lived effect | 
5 | B1 | significant side effects |  | 
